Test results as given in PubChem BioAssay AID1259411 (Chemical Carcinogenesis Research Information System (CCRIS), 2018).
Calls of active or inactive are those of the source. No rule for the calls is given here.

Tested on: rodent carcinogenicity bioassays, tumor incidence
Assay: CCRIS carcinogenicity studies
Conditions: Dose: 0, Dose: 0
Summary of the method: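 NCI-built, expert-reviewed records of carcinogenicity and related test outcomes (mutagenicity, tumor promotion/inhibition) compiled from published and report sources, historical span 1985-2011, not updated.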

Q: For c1ccc(C2CO2)cc1 (centres undefined), which carcinogen call (Species: MOUSE, Strain/Sex: B6C3F1/FEMALE, Route: GAVAGE, 375, 750 MG/KG IN CORN OIL 3 D/WK FOR UP TO 104 WK (STUDY DURATION: 24 MO), 375, 750 MG/KG IN CORN OIL 3 D/WK FOR UP TO 104 WK (STUDY DURATION: 24 MO), Tumor Site: Type of Lesion: FORESTOMACH: PAPILLOMA, CARCINOMA) is on record?
A: The carcinogen call was “active; positive”.

Q: What about the carcinogen call (Species: MOUSE, Strain/Sex: B6C3F1/MALE, Route: GAVAGE, 375, 750 MG/KG IN CORN OIL 3 D/WK FOR UP TO 104 WK (STUDY DURATION: 24 MO), 375, 750 MG/KG IN CORN OIL 3 D/WK FOR UP TO 104 WK (STUDY DURATION: 24 MO), Tumor Site: Type of Lesion: LIVER: CARCINOMA OR ADENOMA, FORESTOMACH: PAPILLOMA, CARCINOMA) of the same molecule?
A: The carcinogen call was “active; positive”.

Q: What about the carcinogen call (Species: RAT, Strain/Sex: BDIV/FEMALE, Route: GAVAGE, 100-150 MG/KG IN OLIVE OIL 1/WK FOR 96 WK ADMINISTERED TO OFFSPRING OF FEMALE RATS GIVEN 200 MG/KG ONCE ON DAY 17 OF, Tumor Site: Type of Lesion: FORESTOMACH: CARCINOMA IN SITU, CARCINOMA) of the same molecule?
A: The carcinogen call was “active; positive”.

Q: And the carcinogen call (Species: RAT, Strain/Sex: BDIV/FEMALE, Route: GAVAGE, 200 MG/KG ONCE IN OLIVE OIL ON DAY 17 OF PREGNANCY (STUDY DURATION: 120 WK))?
A: Its carcinogen call is “inactive; negative”.

Q: And the carcinogen call (Species: RAT, Strain/Sex: BDIV/MALE, Route: GAVAGE, 100-150 MG/KG IN OLIVE OIL 1/WK FOR 96 WK ADMINISTERED TO OFFSPRING OF FEMALE RATS GIVEN 200 MG/KG ONCE ON DAY 17 OF, Tumor Site: Type of Lesion: FORESTOMACH: PAPILLOMA, CARCINOMA IN SITU, CARCINOMA)?
A: Its carcinogen call is “active; positive”.

Q: What about the carcinogen call (Species: RAT, Strain/Sex: F344/FEMALE, Route: GAVAGE, 275, 550 MG/KG IN CORN OIL 3 D/WK FOR 104 WK (STUDY DURATION: 24 MO), 275, 550 MG/KG IN CORN OIL 3 D/WK FOR 104 WK (STUDY DURATION: 24 MO), Tumor Site: Type of Lesion: FORESTOMACH: PAPILLOMA, SQUAMOUS CELL CARCINOMA) of the same molecule?
A: The carcinogen call was “active; positive”.

Q: What about the carcinogen call (Species: RAT, Strain/Sex: F344/MALE, Route: GAVAGE, 275, 550 MG/KG IN CORN OIL 3 D/WK FOR 104 WK (STUDY DURATION: 24 MO), 275, 550 MG/KG IN CORN OIL 3 D/WK FOR 104 WK (STUDY DURATION: 24 MO), Tumor Site: Type of Lesion: FORESTOMACH: PAPILLOMA, SQUAMOUS CELL CARCINOMA) of the same molecule?
A: Its carcinogen call is “active; positive”.

Q: What about the carcinogen call (Species: RAT, Strain/Sex: SPRAGUE-DAWLEY/FEMALE, Route: GAVAGE, 50, 250 MG/KG BW IN OLIVE OIL 1/D 4-5 D/WK FOR 52 WK (STUDY DURATION: LIFETIME), 50, 250 MG/KG BW IN OLIVE OIL 1/D 4-5 D/WK FOR 52 WK (STUDY DURATION: LIFETIME), Tumor Site: Type of Lesion: [BRAIN WAS ONLY SITE EVALUATED]) of the same molecule?
A: Its carcinogen call is “inactive; negative”.

Q: And the carcinogen call (Species: RAT, Strain/Sex: SPRAGUE-DAWLEY/FEMALE, Route: INTRAGASTRIC, 50, 250 MG/KG IN OLIVE OIL 1/D, 4-5 D/WK FOR 52 WK (STUDY DURATION: LIFESPAN, 50, 250 MG/KG IN OLIVE OIL 1/D, 4-5 D/WK FOR 52 WK (STUDY DURATION: LIFESPAN, Tumor Site: Type of Lesion: FORESTOMACH: PAPILLOMA OR ACANTHOMA, SQUAMOUS CELL CARCINOMA)?
A: The carcinogen call was “active; positive”.

Q: What about the carcinogen call (Species: RAT, Strain/Sex: SPRAGUE-DAWLEY/MALE, Route: GAVAGE, 50, 250 MG/KG BW IN OLIVE OIL 1/D 4-5 D/WK FOR 52 WK (STUDY DURATION: LIFETIME), 50, 250 MG/KG BW IN OLIVE OIL 1/D 4-5 D/WK FOR 52 WK (STUDY DURATION: LIFETIME), Tumor Site: Type of Lesion: [BRAIN WAS ONLY SITE EVALUATED]) of the same molecule?
A: Its carcinogen call is “inactive; negative”.

Q: And the carcinogen call (Species: RAT, Strain/Sex: SPRAGUE-DAWLEY/MALE, Route: INTRAGASTRIC, 50, 250 MG/KG IN OLIVE OIL 1/D, 4-5 D/WK FOR 52 WK (STUDY DURATION: LIFESPAN, 50, 250 MG/KG IN OLIVE OIL 1/D, 4-5 D/WK FOR 52 WK (STUDY DURATION: LIFESPAN, Tumor Site: Type of Lesion: FORESTOMACH: PAPILLOMA OR ACANTHOMA, SQUAMOUS CELL CARCINOMA)?
A: The carcinogen call was “active; positive”.

Q: With CC(=O)CN(N=O)C(N)=O as the molecule, how does the carcinogen call (Species: RAT, Strain/Sex: F344/FEMALE, Route: GAVAGE, 8 MG/ML IN CORN OIL/ETHYL ACETATE (2:1) 2/WK FOR 30 WK (STUDY DURATION: LIFETIME), Tumor Site: Type of Lesion: KIDNEY MESENCHYME: TUMOR, THYROID: FOLLICULAR TUMOR) read?
A: The carcinogen call was “active; positive”.

Q: And the carcinogen call (Species: RAT, Strain/Sex: F344/MALE, Route: GAVAGE, 8 MG/ML IN CORN OIL/ETHYL ACETATE (2:1) 2/WK FOR 30 WK (STUDY DURATION: LIFETIME), Tumor Site: Type of Lesion: LUNG: TUMOR, MESOTHELIUM: TUMOR, KIDNEY MESENCHYME: TUMOR, Tumor Site: Type of Lesion: LUNG: TUMOR, MESOTHELIUM: TUMOR, KIDNEY MESENCHYME: TUMOR)?
A: Its carcinogen call is “active; positive”.

Q: With CC(=O)CN(C)N=O as the molecule, how does the carcinogen call (Species: HAMSTER, Strain/Sex: SYRIAN/FEMALE, Route: GAVAGE, 0.5 MG IN 0.1 ML WATER 2/WK FOR 22 WK FOR A TOTAL DOSE OF 22 MG (STUDY DURATION: 45 WK), Tumor Site: Type of Lesion: LIVER: HEMANGIOSARCOMA, CHOLANGIOCELLULAR CARCINOMA, CHOLANGIOCELLULAR ADENOMA, NASAL MUCOSA: CARCINOMA) read?
A: The carcinogen call was “active; positive”.

Q: What about the carcinogen call (Species: HAMSTER, Strain/Sex: SYRIAN/FEMALE, Route: GAVAGE, 1 MG IN 0.1 ML WATER 2/WK FOR 11 WK FOR A TOTAL DOSE OF 22 MG (STUDY DURATION: 45 WK), Tumor Site: Type of Lesion: LIVER: TUMOR, NASAL MUCOSA: CARCINOMA) of the same molecule?
A: The carcinogen call was “active; positive”.

Q: And the carcinogen call (Species: HAMSTER, Strain/Sex: SYRIAN/FEMALE, Route: GAVAGE, 2 MG IN 0.2 ML WATER 1/WK FOR 14 WK FOR A TOTAL DOSE OF 28 MG (STUDY DURATION: 17 WK), Tumor Site: Type of Lesion: LIVER: HEPATOCELLULAR ADENOMA, CHOLANGIOCELLULAR CARCINOMA OR ADENOMA, NASAL MUCOSA: CARCINOMA OR ADENOMA)?
A: Its carcinogen call is “active; positive”.

Q: What about the carcinogen call (Species: RAT, Strain/Sex: F344/FEMALE, Route: GAVAGE, 4 MG/WK FOR A TOTAL DOSE OF 0.5 MMOL (STUDY DURATION: 40 WK), Tumor Site: Type of Lesion: ESOPHAGUS: TUMOR) of the same molecule?
A: The carcinogen call was “active; positive”.

Q: And the carcinogen call (Species: RAT, Strain/Sex: F344/MALE, Route: GAVAGE, 2, 4, 10 MG/WK FOR A TOTAL DOSE OF 0.5, 0.5, 0.9 MMOL (STUDY DURATION: 70 WK), 2, 4, 10 MG/WK FOR A TOTAL DOSE OF 0.5, 0.5, 0.9 MMOL (STUDY DURATION: 70 WK), Tumor Site: Type of Lesion: ESOPHAGUS: TUMOR)?
A: Its carcinogen call is “active; positive”.

Q: How did the carcinogen call (Species: RAT, Strain/Sex: STRAIN-CD/FEMALE, Route: INTRAPERITONEAL, 10, 30 UMOL/KG IN TRIOCTANOIN 2/WK FOR 4 WK (TOTAL DOSES: 13.2, 40.0 UMOL) (STUDY DURATION: 46 WK), 10, 30 UMOL/KG IN TRIOCTANOIN 2/WK FOR 4 WK (TOTAL DOSES: 13.2, 40.0 UMOL) (STUDY DURATION: 46 WK), Tumor Site: Type of Lesion: MAMMARY GLAND: FIBROADENOMA, ADENOCARCINOMA, EAR (ZYMBAL GLAND): ADENOMA OR CARCINOMA) turn out when CC(=O)Nc1ccc(-c2ccc(N(O)C(C)=O)cc2)cc1 was run?
A: Its carcinogen call is “active; positive”.

Q: What does the source list for Clc1ccc(C(c2ccccc2Cl)C(Cl)(Cl)Cl)cc1 (centres undefined) (tested in a mixture with another compound)?
A: carcinogen call (Species: MOUSE, Strain/Sex: BALB/MALE,FEMALE, Route: DIET, 2, 20, 250 PPM, 2, 20, 250 PPM, Tumor Site: Type of Lesion: LIVER: HEPATOCELLULAR TUMOR): active; positive; carcinogen call (Species: MOUSE, Strain/Sex: CF-1/MALE,FEMALE, Route: DIET, 250 PPM FOR 30 WK, Tumor Site: Type of Lesion: LIVER: HEPATOMA): active; positive; carcinogen call (Species: MOUSE, Strain/Sex: CF-1, Route: DIET, 2, 10, 50, 250 PPM, 2, 10, 50, 250 PPM, Tumor Site: Type of Lesion: LIVER: HEPATOCELLULAR TUMOR): active; positive

Q: Which carcinogen call (Species: RAT, Strain/Sex: F344/MALE, Route: GAVAGE, 2 MMOL/KG BW 1/WK FOR 12 WK THEN 1 MMOL/KG FOR 38 WK (STUDY DURATION: 83 WK), Tumor Site: Type of Lesion: LIVER: CARCINOMA) does the source give for CCC(CC)[N+](=O)[O-] here?
A: The carcinogen call was “active; positive”.

Q: CC1CN(N=O)CCC1=O (centres undefined) was tested. Which carcinogen call (Species: RAT, Strain/Sex: F344/FEMALE, Route: ORAL, 80 ML OF SOLUTION OF 126 MG/L IN NEUTRAL DEIONIZED DRINKING WATER 5 D/WK FOR 26 WK (STUDY DURATION: 40 WK), Tumor Site: Type of Lesion: NASAL CAVITY: SQUAMOUS CELL CARCINOMA, TONGUE: TUMOR, FORESTOMACH: TUMOR, ESOPHAGUS: TUMOR, TRACHEA: TUMOR, Tumor Site: Type of Lesion: NASAL CAVITY: SQUAMOUS CELL CARCINOMA, TONGUE: TUMOR, FORESTOMACH: TUMOR, ESOPHAGUS: TUMOR, TRACHEA: TUMOR) did it give?
A: Its carcinogen call is “active; positive”.
